For the first data set, the system named is S. sobrinus. Kind of data set: Acid production in vitro by pure culture, colour change of pH indicator. Type of data set: cell-based. To be noted: carbon source at 20% in the reaction batch, only S. sobrinus, FIG. 1. As for the experimental part:
Stock cultures of the strain selected for the experiments were stored on CRYOBANK (Mast Diagnostica, CRYO/M) ceramic supports at a temperature of −80° C. For culturing, a ceramic ring was placed into 10 ml of nutrient medium and incubated 14-72 h. This culture was designated passage 0 (P0). Then, 100 μl of culture were inoculated into 10 ml of fresh medium and incubated for 24 h. Cultures of passage 2 were used for the subsequent experiments on acid production. The cultures were diluted in this case until an absorption at 650 nm of about 0.6-1.0 was obtained. The bacterial suspensions were centrifuged at 8000 rpm for 5 minutes. The culture supernatant was removed and the pellet was resuspended in the same volume of water (10 ml, deionized, sterile). The sample was centrifuged again (8000 rpm, 5 minutes) and the supernatant was removed. The pellet was subsequently resuspended in 1 ml of deionized water which corresponds to 1/10 of the original volume. […] Then, the appropriate pH was adjusted and the mixture was filled up to the calculated volume using deionized water. […] After addition of the bacterial suspension to the respective test solution, the colour change of the pH indicator was assessed visually against a reference sample (only test solution) at regular intervals. […]
Take `OC[C@H]1O[C@@](CO)(O[C@H]2O[C@H](CO)[C@@H](O)[C@H](O)[C@H]2O)[C@@H](O)[C@@H]1O` [sucrose]: the “time within which acid formation can be detected” value is ≤ 15 min.

Tested on in a further data set: not listed separately
Kind of data set: pK of pH indicators. As to conditions: pH indicator. Type of data set: physicochemical. As for the experimental part: In an alternative embodiment, the pH is determined using a pH indicator which changes colour on acid formation. The pH indicator is preferably added to the cariogenic bacteria together with the carbon source, e.g. by joint immobilization of pH indicator and carbon source on a test strip or by simultaneous addition of pH indicator and carbon source (preferably in the form of a single solution) to a diluted, undiluted or concentrated plaque or saliva sample. […] These comprise, e.g., the indicators bromocresol purple, bromocresol green, m-cresol purple, bromothymol blue, phenol red and chlorophenol red. […] The incubation time that must be applied until a colour change can be detected, depends on the carbon sources and test reagents used and also on their absolute and relative quantitative ratios to one another. In a preferred embodiment, the time period to a colour change of the pH indicator is less than 60 minutes, less than 45 minutes, less than 30 minutes, less than 20 minutes or less than 15 minutes after mixing bacteria, carbon source and indicator.
Take `Cc1c(C2(c3cc(Br)c(O)c(Br)c3C)OS(=O)(=O)c3ccccc32)cc(Br)c(O)c1Br` [Bromocresol green]: the pK was 4.7.

In turn, `Cc1cc(C2(c3cc(C)c(O)c(Br)c3)OS(=O)(=O)c3ccccc32)cc(Br)c1O` [Bromocresol purple] showed a pK of 6.

As for `Cc1c(C2(c3cc(C(C)C)c(O)c(Br)c3C)OS(=O)(=O)c3ccccc32)cc(C(C)C)c(O)c1Br` [Bromothymol blue], the pK is reported as 7.

Molecule `O=S1(=O)OC(c2ccc(O)c(Cl)c2)(c2ccc(O)c(Cl)c2)c2ccccc21` [Chlorophenol red] came in with a pK of 5.6.

`Cc1cc(O)ccc1C1(c2ccc(O)cc2C)OS(=O)(=O)c2ccccc21` [m-Cresol purple] came in with a pK of 8.2.

The record behind these values is patent US9260739B2, “Method for the detection of acid production by cariogenic bacteria” (Ivoclar Vivadent AG, priority 2010, dated 2016).
